Where “and” joins values, the source holds several entries; their conditions need not be identical. Identical values can stand only once.
Assays:
mouse lung lower airways = assay: Bronchial diameter changes in mouse lung slices; settings: 3.5 μM UCL 1684; 0.5 μM carbachol
Protocol: Experiments using mouse lung slices were conducted as described ([Sanderson, 2011]). Eight-week-old Balb/C mice were sacrificed by deep isoflurane anesthesia followed by cervical dislocation. Trachea were isolated, cannulated with a blunt needle and the lungs filled with 3 ml of Hanks balanced salt solution (HBSS) with 2% low-temperature melt agarose at 37°C followed by 0.5 ml of air to clear the airways of agarose. The mouse thoracic cavity was exposed and the lungs chilled with an ice bath. After gelling of the agarose, the lungs were removed and 200 μm sections made with a Leica Vibratome VT1200. The sections were placed in DMEM in a tissue-culture incubator at 37°C for up to 8 h. Experiments measuring diameter changes were conducted using an inverted 10X phase contrast objective and oblique lighting in a constant perfusion (0.5 ml/min) bath of HBSS at 22°C solution.

[1] = test system: human primary bronchial smooth muscle cells stably transfected with the human M3 muscarinic receptor; assay: Cytosolic calcium imaging in human bronchial smooth muscle cells; type: cell-based
Protocol: TSM cells were placed on a coverslip in a 1 ml perfusion chamber on an inverted microscope and incubated with 20 μM Cal-520 AM dye (AAT Bioquest, Sunnyvale, California, USA) in 0.2% Pluronic F-127 and 1 mM probenecid in HBSS at room temperature for 30 min. The chamber was fitted with a top adaptor and coverslip (Warner Instruments, RC37WC) to establish a closed perfusion chamber. The cells were imaged at 20 second intervals using 488 nm excitation on a Nikon swept-field confocal microscope using slit-scan mode, 2×2 Binning, and 100 millisecond frames.
Due to the loss of functional muscarinic receptors in primary bronchial smooth muscle cells in culture, calcium imaging was performed in human primary bronchial smooth muscle cells (ScienCell, passage 3) stably transfected with the human M3 muscarinic receptor. Human M3 receptor transfected clones were stably selected with G418, and individual clones were expanded to a 10 cm dish and frozen into aliquots, and analyzed after a maximum of two additional passages.

M5 muscarinic receptor = molecular target: T1, M5 muscarinic receptor (Homo sapiens, UniProt P08912); assay: R-CEPIAer ER calcium assay, CHO cells transiently transfected with M5 receptor; type: cell-based
T1 construct: expressed in transfected cells; host or cells: CHO cells, transiently co-transfected with pCMV R-CEPIAer
T1 sequence (P08912 1-532): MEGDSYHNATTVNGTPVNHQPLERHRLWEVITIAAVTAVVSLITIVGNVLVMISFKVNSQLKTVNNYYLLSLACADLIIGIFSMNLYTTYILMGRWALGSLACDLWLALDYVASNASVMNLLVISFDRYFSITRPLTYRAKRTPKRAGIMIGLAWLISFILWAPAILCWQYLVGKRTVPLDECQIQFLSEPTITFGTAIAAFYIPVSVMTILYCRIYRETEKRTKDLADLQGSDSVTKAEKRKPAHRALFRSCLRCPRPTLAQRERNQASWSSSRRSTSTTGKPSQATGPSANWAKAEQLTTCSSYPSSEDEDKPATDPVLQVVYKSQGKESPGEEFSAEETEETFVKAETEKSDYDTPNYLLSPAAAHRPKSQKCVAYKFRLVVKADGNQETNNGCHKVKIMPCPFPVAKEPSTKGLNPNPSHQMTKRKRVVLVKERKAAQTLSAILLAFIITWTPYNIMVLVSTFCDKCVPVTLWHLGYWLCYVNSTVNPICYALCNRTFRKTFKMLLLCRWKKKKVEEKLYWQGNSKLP
Protocol: [Worded in the source for another target; used here, by the source, with some conditions changed.] The binding of antagonists to Gq-coupled receptors was determined by measuring IP3-mediated calcium depletion from the endoplasmic reticulum (ER). This was accomplished using CHO-K1 cells stably transfected with human M3 muscarinic acetylcholine receptor (CEM3000000, cDNA Resource Center, Bloomsburg University) and R-CEPIAer, a low affinity ER-targeted calcium indicator fluorescent protein ([Suzuki et al., 2014]). R-CEPIAer reporting of ER calcium concentration was assessed using 564 nm excitation light (>590 long-pass emission) at 20 second intervals on a Nikon swept-field confocal microscope using slit-scan mode, 2x2 Binning, and 100 millisecond frames. F/Fmax was fluorescence intensity normalized to maximal fluorescence intensity during the experiment. The response of cells to Gq-coupled receptor agonist were measured as the change in F/Fmax (ΔF/Fmax) from preagonist value to fluorescence minimum during agonist application (that occurs by IP3-mediated ER calcium depletion). […] Perfusion of each agonist application was for 2 min, while the antagonist overlapped and preceded the second agonist application by 3 min. […] IC50 was calculated by assaying fractional inhibition using a dose-response of antagonist concentrations (i.e. Figure 1D ). […]

aorta = assay: Isometric aortic ring tension measurement; design: species or system mouse; settings: 3.5 μM; precontracted to 300 nM phenylephrine
Protocol: Mice used in these studies were BALB/C mice from Jackson Labs. All animal procedures were reviewed and approved by the University of Texas Health Science Center at San Antonio Institutional Animal Care and Use Committee. For tracheal constriction studies, animals were deeply anesthetized with isoflurane and then sacrificed by cervical dislocation. Isometric tracheal contraction measurements were performed as previously described ([Semenov et al., 2012]). Trachea were removed and surrounding tissues dissected in ice-cold physiologic saline solution (PSS) consisting of 119 mM NaCl, 4.7 mM KCl, 2.0 mM CaCl2, 1.0 mM KH2PO4, 1.17 mM MgSO4, 18 mM NaHCO3, 0.026 mM EDTA, 11 mM glucose, and 12.5 mM sucrose. Trachea were cut below the pharynx and above the primary bronchus bifurcation. Two metal wires, attached to a force transducer and micrometer (Radnoti, LLC), were threaded into the lumen of the trachea. Trachea were placed into an oxygenated organ bath (95% O2, 5% CO2), at 37°C, pH 7.35 (after bubbling with 95% O2–5% CO2). Tracheal resting tension was readjusted to 1 gram over 1 h and then challenged with 67 mM potassium PSS with NaCl adjusted to 56.7 mM to maintain proper osmolarity (KPS). Trachea were challenged two or more times until reproducible contractile responses were achieved. All subsequent experimental drug responses were normalized to the KPS response. […]

SMILES: c1cc2cc(c1)C[n+]1ccc(c3ccccc31)NCc1ccc(cc1)CNc1cc[n+](c3ccccc13)C2 [UCL 1684, 6,12,19,20,25,26-Hexahydro-5,27:13,18:21,24-trietheno-11,7-metheno-7H-dibenzo [b,n] [1,5,12,16]tetraazacyclotricosine-5,13-diium dibromide]
- Bronchial diameter during second carbachol challenge normalized to first challenge (mouse lung lower airways): 178.3% and 178.3 ± 19.0%
- Calcium response (integral) to second carbachol relative to first ([1]; 3.5 μM UCL 1684, 0.5 μM carbachol, human BSMC): 0.38 ± 0.10
- activity at 3.5 µM ([1]; Homo sapiens, BSMC, read-out: CCH-evoked cytosolic calcium, % of control): 38%
- IC50 (M5 muscarinic receptor): 520 nM
- Hill slope of inhibition curve, M5 receptor (M5 muscarinic receptor; 0.5 μM carbachol): 1.4 ± 0.17
- Relaxation response of aorta (aorta): 7.8 ± 4.3
